This note sets out measurements from patent publication US20160002248A1, “GLS1 INHIBITORS FOR TREATING DISEASE” (Board of Regents, The University of Texas System, priority 2014, published 2016).

For this test, the target named is T1, purified recombinant human GAC (GLS1) (Homo sapiens, UniProt O94925).
T1 sequence (O94925 55-598 isoform O94925-3 limits assumed): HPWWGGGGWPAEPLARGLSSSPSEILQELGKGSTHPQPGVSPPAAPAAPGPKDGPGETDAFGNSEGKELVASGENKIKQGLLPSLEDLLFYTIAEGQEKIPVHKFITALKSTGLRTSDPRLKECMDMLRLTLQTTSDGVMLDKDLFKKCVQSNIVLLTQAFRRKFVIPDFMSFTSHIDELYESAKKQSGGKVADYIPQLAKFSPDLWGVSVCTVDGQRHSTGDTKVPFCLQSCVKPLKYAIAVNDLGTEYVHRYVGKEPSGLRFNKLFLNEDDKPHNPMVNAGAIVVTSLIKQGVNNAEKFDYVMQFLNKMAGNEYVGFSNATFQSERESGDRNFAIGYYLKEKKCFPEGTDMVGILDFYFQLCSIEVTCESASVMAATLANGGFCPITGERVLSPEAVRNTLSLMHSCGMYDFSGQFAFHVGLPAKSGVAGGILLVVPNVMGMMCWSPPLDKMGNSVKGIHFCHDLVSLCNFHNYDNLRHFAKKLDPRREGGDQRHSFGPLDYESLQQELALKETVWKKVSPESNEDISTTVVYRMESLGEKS
In words: GLS1 Enzymatic Activity Assay (dual-coupled enzymatic assay). It counts as biochemical. Here is the method: GLS1 Enzymatic Activity Assay
The inhibition of purified recombinant human GAC by varying concentrations of inhibitors is assessed via a dual-coupled enzymatic assay. The glutamate produced by the glutaminase reaction is used by glutamate oxidase to produce α-ketoglutarate, ammonia, and hydrogen peroxide, with this hydrogen peroxide subsequently being used by horseradish peroxidase to produce resorufin in the presence of Amplex UltraRed. The assay buffer consisted of 50 mM Hepes (pH 7.4), 0.25 mM EDTA and 0.1 mM Triton X-100. GAC was incubated with potassium phosphate (10 minutes at room temperature) prior to incubation with inhibitor (10 minutes at room temperature). The final reaction conditions were as follows: 2 nM GAC, 50 mM potassium phosphate, 100 mU/mL glutamate oxidase (Sigma), 1 mM glutamine (Sigma), 100 mU/mL horseradish peroxidase (Sigma), 75 μM Amplex UltraRed (Life Technologies), and 1% (v/v) DMSO. The production of resorufin was monitored on a Perkin Elmer Envision plate reader (excitation 530 nm, emission 590 nm) either in a kinetics or endpoint mode (at 20 minutes). IC50 values were calculated using a four-parameter logistic curve fit.

On to `Nc1nnc(CCCCc2cc3cc[nH]c3nn2)s1` [Example 1, 5-(4-(7H-pyrrolo[2,3-c]pyridazin-3-yl)butyl)-1,3,4-thiadiazol-2-amine], for which the IC50 is 500 to 5000 nM.

Consider `O=C(Cc1ccccc1)Nc1nnc(CCCCCc2cc3cc(Cc4ccccc4)[nH]c3nn2)s1` [Example 7, N-(5-(5-(6-benzyl-7H-pyrrolo[2,3-c]pyridazin-3-yl)pentyl)-1,3,4-thiadiazol-2-yl)-2-phenylacetamide], for which the IC50 was 500 to 5000 nM. `O=C(NCc1ccccc1)c1cn(CCCCc2cc3cc[nH]c3nn2)nn1` [Example 11, 1-(4-(7H-pyrrolo[2,3-c]pyridazin-3-yl)butyl)-N-benzyl-1H-1,2,3-triazole-4-carboxamide]: the IC50 is 500 to 5000 nM.

For `Nc1nnc(CCCCc2cnc3[nH]c(Cc4ccccc4)nc3c2)s1` [Example 22, 5-(4-(2-benzyl-3H-imidazo[4,5-b]pyridin-6-yl)butyl)-1,3,4-thiadiazol-2-amine], the half-maximal inhibitory concentration (IC50) lay in the range of 500 to 5000 nM. On to `O=C(Cc1ccccc1)Nc1nnc(CCCCc2cnc3[nH]c(Cc4ccccc4)nc3c2)s1` [Example 23, N-(5-(4-(2-benzyl-3H-imidazo[4,5-b]pyridin-6-yl)butyl)-1,3,4-thiadiazol-2-yl)-2-phenylacetamide], for which the IC50 lay within 500 to 5000 nM. Next, `O=C(NCc1ccccn1)c1cn(CCCCc2cc3cc[nH]c3nn2)nn1` [Example 25, 1-(4-(7H-pyrrolo[2,3-c]pyridazin-3-yl)butyl)-N-(pyridin-2-ylmethyl)-1H-1,2,3-triazole-4-carboxamide]: 500 to 5000 nM; `Nc1ccn(CCCCc2cc3cc(C4CC4)[nH]c3nn2)c(=O)c1` [Example 31, 4-amino-1-(4-{6-cyclopropyl-7H-pyrrolo[2,3-c]pyridazin-3-yl}butyl)-1,2-dihydropyridin-2-one]: 500 to 5000 nM; `O=C(Cc1cccnc1)Nc1nnc(CCCCc2cc3cc(Cc4ccccc4)[nH]c3nn2)s1` [Example 57, N-[5-(4-{6-benzyl-7H-pyrrolo[2,3-c]pyridazin-3-yl}butyl)-1,3,4-thiadiazol-2-yl]-2-(pyridin-3-yl)acetamide]: under 100 nM. On to `CC(C)(O)CNC(=O)c1nnc(CCCCc2cc3cc(Cc4ccccc4)[nH]c3nn2)s1` [Example 71, 5-(4-{6-benzyl-7H-pyrrolo[2,3-c]pyridazin-3-yl}butyl)-N-(2-hydroxy-2-methylpropyl)-1,3,4-thiadiazole-2-carboxamide], for which the IC50 lay within 500 to 5000 nM. Then `O=C(NCc1ccccn1)c1cn(CCCCc2cc3c4c([nH]c3nn2)CCC4)nn1` [Example 142, N-(pyridin-2-ylmethyl)-1-(4-(5,6,7,8-tetrahydrocyclopenta[4,5]pyrrolo[2,3-c]pyridazin-3-yl)butyl)-1H-1,2,3-triazole-4-carboxamide], with 500 to 5000 nM; and `O=C(NCc1cccc(OC(F)(F)F)c1)c1cn(CCCCc2cc3c(C4=CCNCC4)c(C4CC4)[nH]c3nn2)nn1` [Example 199, 1-{4-[6-cyclopropyl-5-(1,2,3,6-tetrahydropyridin-4-yl)-7H-pyrrolo[2,3-c]pyridazin-3-yl]butyl}-N-{[3-(trifluoromethoxy)phenyl]methyl}-1H-1,2,3-triazole-4-carboxamide], with 100 to 500 nM.

The IC50 is the concentration needed to halve the response being measured.
